Experimental data published in US20200071316A1, “ACTIVATORS OF THE RETINOIC ACID INDUCIBLE GENE "RIG-I" PATHWAY AND METHODS OF USE THEREOF” (Kineta Immuno-Oncology LLC, priority 2018, published 2020).

Experiments:
[1] = system: CXCL10 secretion by CT26 cells; experiment: RIG-I dependent CXCL10 secretion by CT26 colon carcinoma cells (ELISA); format: cell-based, murine; conditions: 10 μM compound, 24 h
Procedure: (§1) The CT26 murine colon carcinoma cell line (ATCC) was used to evaluate the induction of CXCL10 secretion. CXCL10 is an important chemokine in tumor immune biology that recruits tumor-specific T cells to the tumor. To confirm that compound-mediated CXCL10 production was RIG-I specific, RIG-I deficient CT2-RIG-1−/− cells were generated by Kineta using CRISPR technology.
(§2) CT26 cells were seeded at a density of 1×10^4 cells per well on a 96-well tissue culture plate in 100 μL of cell culture and cells were incubated at 37° C. and 5% CO2 for 24 hr. Next, CT26 cells were treated with compounds at the indicated concentrations. CXCL10 was quantified by ELISA from supernatants taken 24 h after compound stimulation by use of the CXCL10 DuoSet ELISA kit (Cat # DY466, R&D, Minneapolis, Minn., USA) according to the manufacturer's instructions.
(§3) CXCL10 secretion by CT26 cells in response to compounds (in an amount of 5 to 20 μM) of the present disclosure is shown in Table 8. The compound-induced CXCL10 production was RIG-I dependent, since none of the compounds mediated CXCL10 secretion in RIG-I deficient CT26 RIG-1−/− cells. The compounds (10 μM, *20 μM, **5 μM) are indicated in the table as follows: “−” indicates less than 100 pg/mL; “+” indicates 100-199 pg/mL; “++” indicates 200-399 pg/mL; “+++” indicates 400-799 pg/mL; “++++” indicates 800 to 1599 pg/mL; “+++++” indicates greater than or equal to 1600 pg/ml.

[2] = system: IRF3 signaling pathway (IRF-inducible ISG54 promotor) in THP1-Lucia ISG cells; experiment: THP1-Lucia ISG reporter assay: induction of IRF3-dependent luciferase activity; format: cell-based; conditions: Homo sapiens, PMA-differentiated cells, 18 h after stimulation, read-out: THP1 ISG: fold increase of IRF3-dependent luciferase activity over background; for fold induction at 10 µM: 10 μM compound; for fold induction at 20 µM: 20 μM compound (*)
Procedure: The compounds were evaluated in the THP1-Lucia™ ISG (interferon stimulated genes) reporter assay to determine if the compounds activate the IRF3 signaling pathway. The THP1-Lucia™ cells (InvivoGen) express the secreted luciferase (Lucia) reporter gene under the control of an IRF-inducible promotor. The reporter cell line was developed from human monocytic leukemia THP-1 cells.
(§4) The promotor was comprised of five IFN-stimulated response elements (ISRE) fused to an ISG54 minimal promotor which is unresponsive to NF-kB or AP-1 pathways. […] The IRF3-deficient THP1-Lucia™ ISG IRF3 −/− reporter cell line was generated by CRISPR technology from the parent THP1-Lucia™ ISG reporter cell line.
(§5) 5 THP1-Lucia™ ISG cells and IRF3-deficient THP1-Lucia™ ISG IRF3 −/− cells were differentiated with PMA (100 ng/ml) and stimulated with compounds at the indicated concentrations (5 to 20 μM), positive control, or not treated (background). Luciferase secretion was quantified using the QUANTI-Luc luciferase assay system (InvivoGen) 18 h after stimulation. Data are shown as fold increase luciferase activity over background in Table 7 and represent the IRF3-dependent ISG54 promotor activity by the THP1-Lucia™ ISG cells in response to compounds. […] The fold increase of compounds (10 μM, *20 μM, **5 μM) induced IRF3 dependent luciferase activity is indicated as follows: “−” indicates less than 2.4 fold increase; “+” indicates a 2.4-4.9 fold increase; “++” indicates a 5-9.9 fold increase; “+++” indicates a 10-19 fold increase; “++++” indicates a 20-39 fold increase; “+++++” indicates greater than or equal to 40 fold increase.

[3] = system: THP1-Lucia ISG IRF3 −/− cells; experiment: IRF3-deficient THP1-Lucia ISG IRF3 −/− reporter assay (counter-screen); format: cell-based; conditions: Homo sapiens, 18 h after stimulation, read-out: THP1 ISG IRF3 −/−: fold increase of luciferase activity over background; for fold induction at 10 µM: 10 μM compound; for fold induction at 20 µM: 20 μM compound (*)
Procedure: as §4, §5

[4] = system: RIG-I deficient CT26 RIG-1−/− cells; experiment: CXCL10 secretion in RIG-I deficient CT26 RIG-1−/− cells (ELISA); format: cell-based, murine; conditions: 10 μM compound, 24 h
Procedure: as §1, §2, §3

| SMILES | CXCL10 secretion by CT26 cells [1] | fold induction at 10 µM [2] | fold induction at 10 µM [3] | CXCL10 secretion by CT26 RIG-I −/− cells [4] | fold induction at 20 µM [2] | fold induction at 20 µM [3] |
| --- | --- | --- | --- | --- | --- | --- |
| O=C(Nc1nc2ccc(S(=O)(=O)N3CCC3)cc2s1)c1cc2ccsc2cc1OCCN1CCOCC1 [Example 62, N-[6-(azetidine-1-sulfonyl)-1,3-benzothiazol-2-yl]-6-[2-(morpholin-4-yl)ethoxy]-1-benzothiophene-5-carboxamide] | ++++ (“++++” indicates 800 to 1599 pg/mL) | 20 to 39 | < 2.4 | − (“−” indicates less than 100 pg/mL) | – | – |
| O=C(Cc1ccc2nc(NC(=O)c3ccc4ccccc4c3)sc2c1)NC1CC1 [Example 12, N-{6-[(cyclopropyl-carbamoyl)methyl]-1,3-benzothiazol-2-yl}naphthalene-2-carboxamide] | +++ (“+++” indicates 400-799 pg/mL) | – | – | − (“−” indicates less than 100 pg/mL) | 2.4 to 4.9 | < 2.4 |
| CS(=O)(=O)Nc1ccc2nc(NC(=O)c3ccc4ccccc4c3)sc2c1 [Example 7, N-(6-methanesulfonamido-1,3-benzothiazol-2-yl)naphthalene-2-carboxamide] | ++ (“++” indicates 200-399 pg/mL) | 20 to 39 | < 2.4 | − (“−” indicates less than 100 pg/mL) | – | – |
| O=C(Nc1nc2ccc(C(=O)Nc3c(Cl)cccc3Cl)cc2s1)c1ccc2ccccc2c1 [Example 13, N-(2,6-dichlorophenyl)-2-(naphthalene-2-amido)-1,3-benzothiazole-6-carboxaraide] | +++++ (“+++++” indicates greater than or equal to 1600 pg/ml) | 20 to 39 | < 2.4 | − (“−” indicates less than 100 pg/mL) | – | – |
| O=C(Nc1cc2ccc(S(=O)(=O)N3CCCC3)cc2s1)c1cc2c(cc1OCCCCN1CCOCC1)OCO2 [Example 73, 6-[4-(morpholin-4-yl)butoxy]-N-[6-(pyrrolidine-1-sulfonyl)-1-benzothiophen-2-yl]-2H-1,3-benzodioxole-5-carboxamide] | ++++ (“++++” indicates 800 to 1599 pg/mL) | 20 to 39 | < 2.4 | − (“−” indicates less than 100 pg/mL) | – | – |
| O=C(Nc1nc2ccc(S(=O)(=O)N3CCC3)cc2s1)c1ccc2ccccc2c1 [Example 46, N-[6-(azetidine-1-sulfonyl)-1,3-benzothiazol-2-yl]naphthalene-2-carboxamide] | ++ (“++” indicates 200-399 pg/mL) | – | – | − (“−” indicates less than 100 pg/mL) | 10 to 19 | < 2.4 |
| O=C(Nc1nc2ccc(S(=O)(=O)N3CCC3)cc2s1)c1cc2ccccc2cc1OCCN1CCOCC1 [Example 35, N-[6-(azetidine-1-sulfonyl)-1,3-benzothiazol-2-yl]-3-[2-(morpholin-4-yl)ethoxy]naphthalene-2-carboxamide] | + (“+” indicates 100-199 pg/mL) | 20 to 39 | < 2.4 | − (“−” indicates less than 100 pg/mL) | – | – |
| O=C(Nc1nc2ccc(S(=O)(=O)N3CCC3)cc2s1)c1ccc(-c2ccccc2)cc1OCCN1CCOCC1 [Example 60, N-[6-(azetidine-1-sulfonyl)-1,3-benzothiazol-2-yl]-3-[2-(morpholin-4-yl)ethoxy]-[1,1′-biphenyl]-4-carboxamide] | ++++ (“++++” indicates 800 to 1599 pg/mL) | 20 to 39 | < 2.4 | − (“−” indicates less than 100 pg/mL) | – | – |
| O=C(Nc1nc2ccc(OCC(F)(F)F)cc2s1)c1cc2ccccc2cc1OCCCCN1CCOCC1 [Example 58, 3-[4-(morpholin-4-yl)butoxy]-N-[6-(2,2,2-trifluoroethoxy)-1,3-benzothiazol-2-yl]naphthalene-2-carboxamide] | ++ (“++” indicates 200-399 pg/mL) | 5 to 9.9 | < 2.4 | − (“−” indicates less than 100 pg/mL) | – | – |
| O=C(Nc1nc2ccc(S(=O)(=O)N3CCCC3)cc2s1)c1sc2ccccc2c1OCCN1CCOCC1 [Example 84, 3-[2-(morpholin-4-yl)ethoxy]-N-[6-(pyrrolidine-1-sulfonyl)-1,3-benzothiazol-2-yl]-1-benzothiophene-2-carboxamide] | ++ (“++” indicates 200-399 pg/mL) | 5 to 9.9 | < 2.4 | − (“−” indicates less than 100 pg/mL) | – | – |
| O=C(Nc1cc2ccc(S(=O)(=O)N3CCCC3)cc2s1)c1ccc(-c2ccccc2)cc1OCCN1CCOCC1 [Example 71, 3-[2-(morpholin-4-yl)ethoxy]-N-[6-(pyrrolidine-1-sulfonyl)-1-benzothiophen-2-yl]-[1,1′-biphenyl]-4-carboxamide] | − (“−” indicates less than 100 pg/mL) | < 2.4 | < 2.4 | − (“−” indicates less than 100 pg/mL) | – | – |
| O=C(Nc1nc2ccc(S(=O)(=O)N3CCOCC3)cc2s1)c1cc2ccccc2cc1OCCN1CCOCC1 [Example 16, 3-[2-(morpholin-4-yl)ethoxy]-N-[6-(morpholine-4-sulfonyl)-1,3-benzothiazol-2-yl]naphthalene-2-carboxamide] | ++++ (“++++” indicates 800 to 1599 pg/mL) | 20 to 39 | < 2.4 | − (“−” indicates less than 100 pg/mL) | – | – |
| O=C(Nc1nc2ccc(S(=O)(=O)N3CCCC3)cc2s1)c1cc2c(cc1OCCCCN1CCOCC1)OCO2 [Example 43, 6-[4-(morpholin-4-yl)butoxy]-N-[6-(pyrrolidine-1-sulfonyl)-1,3-benzothiazol-2-yl]-2H-1,3-benzodioxole-5-carboxamide] | ++++ (“++++” indicates 800 to 1599 pg/mL) | 5 to 9.9 | < 2.4 | − (“−” indicates less than 100 pg/mL) | – | – |
| CS(=O)(=O)c1ccc2nc(NC(=O)c3ccc4ccccc4c3)sc2c1 [Example 1, N-(6-methanesulfonyl-1,3-benzothiazol-2-yl)naphthalene-2-carboxamide] | ++++ (“++++” indicates 800 to 1599 pg/mL) | 10 to 19 | < 2.4 | − (“−” indicates less than 100 pg/mL) | – | – |
| O=C(Nc1nc2ccc(Cc3ccccc3)cc2s1)c1cc2ccccc2cc1OCCN1CCOCC1 [Example 18, N-(6-benzyl-1,3-benzothiazol-2-yl)-3-[2-(morpholin-4-yl)ethoxy]naphthalene-2-carboxamide] | + (“+” indicates 100-199 pg/mL) | 2.4 to 4.9 | < 2.4 | − (“−” indicates less than 100 pg/mL) | – | – |
